Assay results: patent US12667087B2, “Methods of treatment with aminolevulinic acid synthase 2 (ALAS2) modulators” (Agios Pharmaceuticals, Inc., priority 2019, dated 2026)

The compounds below were run against T1, wild type ALAS2 (Homo sapiens, UniProt P22557) (assay: General IC50 assay, version 1 (5 ug/mL ALAS2), ALA by mass spectrometry). Details: version 1 assay: 5 ug/mL ALAS2, 0 uM PLP, 1 h reaction.
T1 construct: MBP (TEV-cleavable) (C, cleaved yes); made in house; host or cells: E. coli
T1 sequence (P22557 79-587): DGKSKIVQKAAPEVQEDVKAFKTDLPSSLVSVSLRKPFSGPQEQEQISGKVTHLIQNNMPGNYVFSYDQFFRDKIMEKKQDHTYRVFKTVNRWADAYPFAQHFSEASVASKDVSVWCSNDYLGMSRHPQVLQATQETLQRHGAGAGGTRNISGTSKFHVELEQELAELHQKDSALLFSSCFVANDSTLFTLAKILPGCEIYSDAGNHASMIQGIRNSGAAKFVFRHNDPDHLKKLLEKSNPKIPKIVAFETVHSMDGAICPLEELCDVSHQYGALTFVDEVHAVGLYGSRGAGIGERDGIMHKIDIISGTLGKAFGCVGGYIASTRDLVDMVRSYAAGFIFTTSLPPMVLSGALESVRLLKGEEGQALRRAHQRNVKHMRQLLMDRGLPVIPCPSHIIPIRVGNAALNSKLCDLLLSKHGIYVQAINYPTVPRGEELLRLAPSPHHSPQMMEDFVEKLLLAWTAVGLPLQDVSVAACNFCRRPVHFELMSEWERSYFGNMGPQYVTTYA
Type: biochemical
Description: (§1) The exemplified compounds in Table I were tested in vitro against the wild type ALAS2. As described in Example 38, two concentrations of ALAS2 were used: 5 ug/mL ALAS2 (for the version I assay) and 2 ug/mL (for the version 2 assay). “A” refers to an IC50 less than 10.0 μM; “B” refers to an IC50 from 10.0 μM to 50.0 μM; and “C” refers to an AC50 greater than 50.0 μM.
(§2) ALAS2 sequence (see FIG. 8) (residues 79-587) was expressed in E. coli as a TEV cleavable C-terminally MBP tagged construct. Purification steps included an amylose column, followed by MBP tag cleavage and passage through a Ni-NTA column to remove cleaved MBP. ALAS2 was further purified and exchanged into storage buffer (50 mM Tris, 500 mM NaCl, 1 mM DTT, 10 μM PLP, pH 8.0) by size exclusion through a Superdex 200 column and stored at −80° C.
(§3) Preparation of stock solutions: All solutions were prepared by standard methods with the exception of glycine and succinyl CoA. A 1 M solution of glycine was prepared and the pH adjusted to 8.0 by addition of […]. A 1 mM solution of succinyl CoA was prepared in 20 mM phosphoric acid, pH 2.0 to ensure its stability to hydrolysis.
(§4) Routine compound testing for IC50 measurements: Assays were carried out in 96-well V-bottom polypropylene plates (Greiner-Bio cat. no. 651201) at room temperature. Test compound dilution series and DMSO blanks (1 μL) were dispensed into the 96-well plates. A solution of 1.1× assay mix was prepared to contain, in the final 1× assay conditions: 5 μg/mL ALAS2 (for the version 1 assay) or 2 ug/mL (for the version 2 assay), 20 mM sodium phosphate pH 8.0, 3.5 mM glycine, 1 mM MgCl2, 30 mM NaCl, 0.03% BSA, 1 mM EDTA. Assay mix (45 μL) was added to each well, and compound and assay mix were pre-incubated for 1 h at room temperature. Assays were then initiated by addition of 5 μL 1 mM succinyl CoA to each well to give a final concentration of 100 μM. Reactions proceeded for 1 h (version 1 assay) or 2 h (version 2 assay) at room temperature, then were quenched by addition of 200 μL acetonitrile containing 1% formic acid and 0.2 μg/mL ^13C, ^15N aminolevulinic acid (ALA) as an internal standard. The plates were centrifuged at 4° C. for 1 min at 3500 rpm, then 200 μL of supernatant was transferred to a fresh 96-well plate for detection of ALA by high throughput mass spectrometry.
(§5) Measurement of ALA concentration by high throughput mass spectrometry: ALA was monitored in positive mode on a Sciex QTRAP 6500 connected to a Shimadzu 20AD LC using the conditions outlined in the table below. Samples were transferred from the assay plate and loaded onto a ZIC HILIC Trap column (Optimize Technologies, 4 μL, 10 μM) at a flow rate of 1.2 mL/min in 99% acetonitrile, 1% ddH2O containing 0.5% formic acid to remove nonvolatile components with a 6 s desalt cycle. Analytes were eluted with 95% acetonitrile, 5% ddH2O containing 0.5% formic acid in 12 s elution cycles. Concentrations of ALA in each sample were measured by comparison to an authentic standard curve, and IC50s were determined by fitting to the log(compound) vs. response equation Y=bottom+(top−bottom)/(1+10^((log IC50-X)*HillSlope)).

| SMILES | IC50 (uM) ALAS2 v1; 0 uM PLP |
| --- | --- |
| CN(N)c1snnc1-c1ccccc1 [Compound 16] | No Fit |
| CC(C)N(N)c1nnn[nH]1 [Compound 62] | No Fit |

Same assay, conditions: version 1 assay: 5 ug/mL ALAS2, 0 uM PLP, 1 h reaction; read-out: IC50 (uM) ALAS2 v1; 0 uM PLP

| IC50 | SMILES |
| --- | --- |
| > 50 µM | N#Cc1ncoc1NN [Compound 59] |
| < 10 µM | NNc1nc(-c2ccccc2)no1 [Compound 21] |
| < 10 µM | NNc1ccn(CC(=O)O)n1 [Compound 35] |
| < 10 µM | CC(C)n1ccc(NN)n1 [Compound 32] |
| 10 to 50 µM | NNc1nc(-c2ccccn2)no1 [Compound 6] |
| 10 to 50 µM | CCCc1nnc(NN)[nH]1 [Compound 13] |
| < 10 µM | NNc1nc(-c2ccncc2)no1 [Compound 20] |
| 10 to 50 µM | NNc1ccn(CC(F)F)n1 [Compound 33] |
| 10 to 50 µM | NNc1nc(N2CCOCC2)n[nH]1 [Compound 14] |
| > 50 µM | COCc1cnc(N(N)C(=O)C(F)(F)F)s1 [Compound 51] |
| 10 to 50 µM | COc1ccc(-c2nnc(NN)s2)cc1 [Compound 24] |
| < 10 µM | NNc1nnc[nH]1 [Compound 66] |
| > 50 µM | NNc1nnc(O)[nH]1 [Compound 50] |
| 10 to 50 µM | NNc1cc(-c2ccncc2)[nH]n1 [Compound 7] |
| > 50 µM | NNc1nc(-c2ccccc2)cs1 [Compound 26] |
| 10 to 50 µM | NNc1nc(-c2ccc(F)cc2)no1 [Compound 8] |
| < 10 µM | CN(N)c1nnc(C(F)(F)F)[nH]1 [Compound 36] |
| > 50 µM | NNc1ncc(C(=O)O)s1 [Compound 49] |
| < 10 µM | CN(N)c1n[nH]c(=O)[nH]1 [Compound 43] |
| 10 to 50 µM | N#Cc1cnc(NN)s1 [Compound 48] |
| < 10 µM | NNc1nnc(-c2ccccn2)s1 [Compound 22] |
| 10 to 50 µM | CCOC(=O)c1sc(NN)nc1C [Compound 57] |
| < 10 µM | CN(N)c1noc(=O)[nH]1 [Compound 45] |
| < 10 µM | NNc1nnc(-c2ccccc2)[nH]1 [Compound 34] |
| 10 to 50 µM | NNc1nc(CO)cs1 [Compound 53] |
| > 50 µM | Cn1c(NN)nnc1-c1ccccc1 [Compound 30] |
| > 50 µM | Cn1cnnc1NN [Compound 58] |

| IC50 | SMILES |
| --- | --- |
| < 10 µM | NNc1nc(-c2cccnc2)no1 [Compound 19] |
| > 50 µM | NNc1nc(C(F)(F)F)cs1 [Compound 23] |
| > 50 µM | NNc1nnco1 [Compound 47] |
| < 10 µM | NNc1nnc(C(F)(F)F)s1 [Compound 29] |
| < 10 µM | NNc1nnc(-c2ccccc2)s1 [Compound 27] |
| < 10 µM | CCN(N)c1noc(=O)[nH]1 [Compound 38] |
| > 50 µM | NNc1nnnn1-c1ccccc1 [Compound 15] |
| 10 to 50 µM | Cc1nc(NN)sc1C(=O)O [Compound 54] |
| > 50 µM | NNc1nc(-c2ccco2)cs1 [Compound 18] |
| > 50 µM | NNc1nc(-c2ccc(N)cc2)cs1 [Compound 17] |
| > 50 µM | NNc1ccn(CC(F)(F)F)n1 [Compound 31] |
| 10 to 50 µM | CN(N)c1n[nH]nc1C(F)(F)F [Compound 37] |
| > 50 µM | COCc1cnc(NN)s1 [Compound 41] |
| < 10 µM | Cc1ccccc1-c1nnc(NN)[nH]1 [Compound 11] |
| 10 to 50 µM | NNc1cc(C(F)(F)F)n[nH]1 [Compound 28] |
| < 10 µM | NNc1n[nH]nc1C(F)(F)F [Compound 39] |
| > 50 µM | NNc1nnc(C2CCC2)[nH]1 [Compound 12] |
| 10 to 50 µM | NNc1cc(-c2ccccc2)[nH]n1 [Compound 9] |
| > 50 µM | NNc1nnc(C2CC2)s1 [Compound 25] |
| > 50 µM | CN(N)c1nnnn1Cc1ccccc1 [Compound 65] |
| < 10 µM | NNc1nnc(C(F)(F)F)[nH]1 [Compound 44] |
| 10 to 50 µM | NNc1ccn(-c2ccccc2)n1 [Compound 10] |
| < 10 µM | Cc1cnc(NN)s1 [Compound 40] |
| < 10 µM | CCOC(=O)c1[nH]cnc1NN [Compound 46] |
| > 50 µM | Cc1csc(NN)n1 [Compound 42] |
| > 50 µM | Cc1nc(C#N)c(NN)o1 [Compound 52] |

| SMILES | IC50 |
| --- | --- |
| CN(N)c1nnn[nH]1 [Compound 64] | < 10 µM |
| NN(c1nnn[nH]1)C1CC1 [Compound 61] | > 50 µM |
| CCCN(N)c1nnn[nH]1 [Compound 60] | > 50 µM |
| NN(CCO)c1nnn[nH]1 [Compound 56] | > 50 µM |
| Cn1nnnc1NN [Compound 55] | > 50 µM |
| NNc1nnn[nH]1 [Compound 67] | < 10 µM |
| CCN(N)c1nnn[nH]1 [Compound 63] | > 50 µM |

Each compound was assayed against T1, wild type ALAS2 (assay: General IC50 assay, version 2 (2 ug/mL ALAS2), ALA by mass spectrometry). Details: version 2 assay: 2 ug/mL ALAS2, 0 uM PLP, 2 h reaction, read-out: IC50 (uM) ALAS2 v2.
Type: biochemical
Description: as §1, §2, §3, §4, §5

| IC50 | SMILES |
| --- | --- |
| < 10 µM | NNc1nc(-c2ccnc3ccccc23)no1 [Compound 1] |
| 10 to 50 µM | NNc1nc(-c2ccc(C(F)(F)F)cc2)no1 [Compound 4] |
| < 10 µM | NNc1nc(-c2ccc3ccccc3c2)no1 [Compound 2] |
| > 50 µM | NNc1nc(-c2cccc(C(F)(F)F)c2)no1 [Compound 3] |
| 10 to 50 µM | COc1ccc(-c2noc(NN)n2)cc1 [Compound 5] |
